In ChEMBL document CHEMBL5505993, “Identification of a ferritinophagy inducer via sinomenine modification for the treatment of colorectal cancer” (Eur J Med Chem, 2024):
Calls of active or inactive are those of the source. The rule behind the calls is not given here.

What was measured:
[1] = test system: HCT-116; assay: Antitumor activity against human HCT-116 cells xenografted in BALB/c mouse assessed as increase in 4-HNE level in tumor at 30 mg/kg,ip administrated daily for 14 days by ELISA; format: functional, organism-based; settings: time 14.0 day
[2] = test system: HCT-116; assay: Induction of ferritin autophagy in human HCT-116 cells assessed as upregulation of FTH1 protein expression at 20 uM incubated for 12 hrs in presence of autophagy inhibitor, Bafilomycin A1 by Western blotting analysis; format: functional, cell-based
[3] = test system: HCT-116; assay: Antitumor activity against human HCT-116 cells xenografted in BALB/c mouse assessed as reduction in tumor growth at 30 mg/kg,ip administrated daily for 14 days; format: functional, organism-based; settings: time 14.0 day
[4] = test system: HCT-116; assay: Induction of ferroptosis in human HCT-116 cells assessed as effect on GSH level at 5 to 20 uM incubated for 12 hrs; format: functional, cell-based; settings: dose 5-20 µM
[5] = test system: HCT-116; assay: Antiproliferative activity against human HCT-116 cells assessed as reduction in number of EdU-positive cell at 5 to 20 uM incubated for 9 hrs by Edu staining based analysis; format: functional; settings: dose 5-20 µM
[6] = test system: HCT-116; assay: Induction of ferritin autophagy in human HCT-116 cells assessed as upregulation of NCOA4 protein expression at 20 uM incubated for 12 hrs by immunoprecipitation assay; format: functional, cell-based
[7] = test system: HCT-116; assay: Cytotoxicity against human HCT-116 cells assessed as inhibition of cell growth incubated for 12 hrs by CCK-8 assay; format: functional, cell-based; settings: HCT-116, 12 h
[8] = test system: HCT-116; assay: Antitumor activity against human HCT-116 cells xenografted in BALB/c mouse assessed as reduction in tumor weight at 30 mg/kg,ip administrated daily for 14 days; format: functional, organism-based; settings: time 14.0 day
[9] = test system: HCT-116; assay: Inhibition of colony formation in human HCT-116 cells incubated for 12 hrs by crystal violet staining based analysis; format: functional, cell-based
[10] = test system: HCT-116; assay: Antitumor activity against human HCT-116 cells xenografted in BALB/c mouse assessed as reduction in tumor density at 30 mg/kg,ip administrated daily for 14 days by hematoxylin and eosin staining based microscopic analysis; format: functional, organism-based; settings: time 14.0 day
[11] = test system: HCT-116; assay: Induction of ferroptosis in human HCT-116 cells assessed as increase in 4-HNE level at 20 uM by ELISA; format: functional, cell-based
[12] = Toxicity in BALB/c mouse xenografted with human HCT-116 cells assessed as histopathological changes in liver at 60 mg/kg,ip administrated daily for 14 days by hematoxylin and eosin staining based microscopic analysis; format: organism-based; settings: in vivo, 336 h, time 14 day
[13] = test system: HCT-116; assay: Antitumor activity against human HCT-116 cells xenografted in BALB/c mouse assessed as increase in LC3B expression at 60 mg/kg,ip administrated daily for 14 days by immunohistochemistry; format: functional, organism-based; settings: time 14.0 day
[14] = test system: HCT-116; assay: Antitumor activity against human HCT-116 cells xenografted in BALB/c mouse assessed as reduction in tumor density at 60 mg/kg,ip administrated daily for 14 days by hematoxylin and eosin staining based microscopic analysis; format: functional, organism-based; settings: time 14.0 day
[15] = test system: HCT-116; assay: Induction of […] ROS production in human HCT-116 cells incubated for 12 hrs by DCFH-DA probe based flow cytometry; format: functional, cell-based
[16] = Toxicity in BALB/c mouse xenografted with human HCT-116 cells assessed as change in body weight at 60 mg/kg,ip administrated daily for 14 days; format: organism-based; settings: in vivo, 336 h, time 14 day
[17] = Toxicity in BALB/c mouse xenografted with human HCT-116 cells assessed as change in body weight at 30 mg/kg,ip administrated daily for 14 days; format: organism-based; settings: in vivo, 336 h, time 14 day
[18] = test system: HCT-116; assay: Induction of ferroptosis in human HCT-116 cells assessed as effect on p53 protein expression at 5 to 20 uM incubated for 12 hrs by Western blotting analysis; format: functional, cell-based; settings: dose 5-20 µM
[19] = test system: HCT-116; assay: Induction of autophagy in human HCT-116 cells assessed as formation of autophagosomes at 20 uM incubated for 12 hrs in presence of Bafilomycin A1 by confocal microscopic analysis; format: functional, cell-based
[20] = Toxicity in BALB/c mouse xenografted with human HCT-116 cells assessed as histopathological changes in lung at 60 mg/kg,ip administrated daily for 14 days by hematoxylin and eosin staining based microscopic analysis; format: organism-based; settings: in vivo, 336 h, time 14 day
[21] = test system: HCT-116; assay: Induction of autophagy in human HCT-116 cells transfected with mRFP-GFP-LC3B assessed as formation of autophagosomes by measuring reduction in GFP to mRFP fluorescence ratio at 5 to 20 uM incubated for 12 hrs by Lyso tracker red staining based confocal fluorescence microscopic analysis; format: functional, cell-based; settings: dose 5-20 µM
[22] = Toxicity in BALB/c mouse xenografted with human HCT-116 cells assessed as histopathological changes in kidney at 60 mg/kg,ip administrated daily for 14 days by hematoxylin and eosin staining based microscopic analysis; format: organism-based; settings: in vivo, 336 h, time 14 day
[23] = test system: HCT-116; assay: Antitumor activity against human HCT-116 cells xenografted in BALB/c mouse assessed as increase in LC3B expression at 30 mg/kg,ip administrated daily for 14 days by immunohistochemistry; format: functional, organism-based; settings: time 14.0 day
[24] = test system: HCT-116; assay: Induction of ferroptosis in human HCT-116 cells assessed as increase in intracellular lipid ROS accumulation at 20 uM incubated for 12 hrs in presence of ferroptosis inhibitor, deferoxamine mesylate by C11 BODIPY probe based flow cytometry; format: functional, cell-based
[25] = test system: HCT-116; assay: Cytotoxicity against human HCT-116 cells assessed as inhibition of cell growth incubated for 48 hrs by CCK-8 assay; format: functional, cell-based; settings: HCT-116, 48 h
[26] = test system: HCT-116; assay: Antitumor activity against human HCT-116 cells xenografted in BALB/c mouse assessed as increase in FTH1 expression at 30 mg/kg,ip administrated daily for 14 days by immunohistochemistry; format: functional, organism-based; settings: time 14.0 day
[27] = test system: HCT-116; assay: Antitumor activity against human HCT-116 cells xenografted in BALB/c mouse assessed as reduction in tumor weight at 60 mg/kg,ip administrated daily for 14 days; format: functional, organism-based; settings: time 14.0 day
[28] = Cytotoxicity against human NCM460 cells assessed as inhibition of cell growth incubated for 48 hrs by CCK-8 assay; format: toxicity, cell-based
[29] = Toxicity in BALB/c mouse xenografted with human HCT-116 cells assessed as histopathological changes in lung at 30 mg/kg,ip administrated daily for 14 days by hematoxylin and eosin staining based microscopic analysis; format: organism-based; settings: in vivo, 336 h, time 14 day
[30] = test system: HCT-116; assay: Induction of ferroptosis in human HCT-116 cells assessed as increase in intracellular lipid ROS accumulation at 5 to 20 uM incubated for 12 hrs by C11 BODIPY probe based fluorescence microscopic analysis; format: functional, cell-based; settings: dose 5-20 µM
[31] = test system: HT-29; assay: Cytotoxicity against human HT-29 cells assessed as inhibition of cell growth incubated for 48 hrs by CCK-8 assay; format: functional, cell-based; settings: HT-29, 48 h
[32] = test system: HCT-116; assay: Induction of ferritin autophagy in human HCT-116 cells assessed as upregulation of NCOA4 protein expression at 5 to 20 uM incubated for 12 hrs by Western blotting analysis; format: functional, cell-based; settings: dose 5-20 µM
[33] = Toxicity in BALB/c mouse xenografted with human HCT-116 cells assessed as histopathological changes in spleen at 30 mg/kg,ip administrated daily for 14 days by hematoxylin and eosin staining based microscopic analysis; format: organism-based; settings: in vivo, 336 h, time 14 day
[34] = test system: HCT-116; assay: Induction of ferroptosis in human HCT-116 cells assessed as effect on GPX4 protein expression at 5 to 20 uM incubated for 12 hrs by Western blotting analysis; format: functional, cell-based; settings: dose 5-20 µM
[35] = test system: HCT-116; assay: Antitumor activity against human HCT-116 cells xenografted in BALB/c mouse assessed as tumor cell rupture at 60 mg/kg,ip administrated daily for 14 days by hematoxylin and eosin staining based microscopic analysis; format: functional, organism-based; settings: time 14.0 day

For `C=C(Cl)C(=O)NCCCCCCCCCCCC(=O)Oc1c(OC)ccc2c1[C@@]13CCN(C)[C@@H](C2)[C@H]1C=C(OC)C(=O)C3`, the Activity [1] was “Active”, the Activity [2] was “inactive” and the Activity [3] was “Active”. The Activity [4] was “inactive”, the Activity [5] was “Active” and the Activity [6] was “inactive”. The IC50 [7] was 15.1 µM, the Activity [8] was “Active” and the inhibition [9] was “Dose-Dependent Effect”. For the same molecule, the Activity [10] was “Active”, the Activity [11] was “Active” and the Activity [12] was “Non-Toxic”. For the same molecule, the Activity [13] was “Active”, the Activity [14] was “Active” and the Activity [15] was “Active”. For the same molecule, the Activity [16] was “Non-Toxic”, the Activity [17] was “Non-Toxic” and the Activity [18] was “inactive”. The Activity [19] was “inactive”, the Activity [20] was “Non-Toxic” and the Activity [21] was “Active”. The Activity [22] was “Non-Toxic”, the Activity [23] was “Active” and the Activity [24] was “Active”. The IC50 [25] was 5.87 µM, the Activity [26] was “Active” and the Activity [27] was “Active”. For the same molecule, the IC50 at 48 h [28] was 19 µM, the Activity [29] was “Non-Toxic” and the Activity [30] was “Active”. For the same molecule, the IC50 [31] was 6.71 µM, the Activity [32] was “inactive” and the Activity [33] was “Non-Toxic”. For the same molecule, the Activity [34] was “inactive” and the Activity [35] was “Active”.
